Legend:
[1] = tested on: A549 and H460 tumour cells; test: cell uptake of S-configured, F-18-labelled glutamic acid derivatives
Text: Following labelling with F-18, (2S,4S)-2-amino-4-(3-[F-18]fluoropropyl)pentanedioic acid was examined in cell experiments with A549 and H460 tumour cells (both human non-small-cell bronchial carcinoma cell lines).

A549 tumour = test: PET/CT imaging in mice bearing A549 tumours; type: in vivo; settings: 60 min after i.v. 10 MBq, 20 min data acquisition
H460 tumour = test: PET with rats bearing H460 tumours; type: in vivo; settings: 80 min after i.v. 18 MBq, 20 min data acquisition

N[C@@H](C[C@H](CCC[18F])C(=O)O)C(=O)O
cellular uptake over time [1]: time-dependent cellular uptake
PET/CT image analysis: uptake into the A549 tumour (A549 tumour): high uptake
PET image analysis: uptake into the H460 tumour (H460 tumour): high uptake
